Measurements published in BindingDB's records for patent US12479845 (Hanmi Pharm. Co., 2025).

Target: Lysine-specific histone demethylase 1A (Homo sapiens, UniProt O60341)
Experiment: Biochemical Analysis of LSD1 Histone Demethylase Inhibitor
Experimental: The biochemical inhibition activity of the synthesized compounds on LSD1 was measured. The activity measurement was performed using LSD1 fluorescence analysis kit (available from BPS Bioscience Co., Ltd., Catalog No: 50106). This analysis kit is designed to measure activity of LSD1 enzyme. H2O2 generated upon demethylation of Lys4 moiety of histone H3 by LSD1 is reacted with HRP/Amplex Red reagent to form fluorescent Resorufin, which is measured by this kit, thereby confirming demethylation.

Structure (SMILES): CCN(CC)c1ccc(-n2c(-c3ccc(C#N)c(F)c3)nc3c(N4CCC[C@@H](N)C4)ccnc32)cc1 [US12479845, Example 21]
- IC50: 27 nM
